≈ marks a conversion by molar mass, not a printed value. Read-outs that look alike come from different tables or passages of the source.
How the values were obtained:
T. b. brucei 427 [1] = assay: T. b. brucei 427 growth inhibition (Scynexis); type: cell-based, Trypanosoma brucei brucei; conditions: for Selectivity Index: L929 vs T. b. brucei; for IC50: Trypanosoma brucei, growth inhibition of T. b. brucei 427, mean ± SD
L929 mouse fibroblasts = assay: Cytotoxicity toward L929 mouse fibroblasts (Scynexis); type: cell-based
Mouse liver S9 stability = type: in vitro ADME; conditions: CD-1, mouse, mouse liver S9 subcellular fraction, half-life in mouse liver S9 fraction; read-out: Mouse S9 t1/2
[2] = Kinetic aqueous solubility in pH 7.4 PBS; type: physicochemical
Excerpt: Table 1 Inhibitory potency, metabolic stability, aqueous solubility, and MDCK-MDR1 cell permeability for 15 screening hits against T. b. brucei. | column: Solubility ^c / (µg/mL)

[3] = Mouse pharmacokinetics (plasma, whole blood, brain); type: in vivo, male CD-1 mice; conditions: male, CD-1, mouse; for bioavailability: po; for Vd: read-out: Vdss; for half-life: read-out: t1/2 (converted)
Experimental: In order to determine the suitability of the more permeable hits for in vivo efficacy studies, we first measured their aqueous solubilities, and their tendencies to metabolise, following a 1 h incubation with CD-1 mouse liver S9 subcellular fractions.[14] […] This led us to probe their in vivo pharmacokinetic (PK) profiles in mice, examining concentration levels in plasma, whole blood and brain tissue following both intravenous and oral administration (Table 2; for further experimental details, see the Supporting Information). […]
Mouse Pharmacokinetics. The in-life portion of PK testing was carried out by ViviSource Laboratories, Inc., Mass achusetts, USA, and PK samples were anal ysed by Sc ynexis, Inc.
Test compounds (9, 12, 17, and 19) w er e each administered as single doses to groups of 10 male CD-1 mice by bolus intravenous injection or oral gavage. Intravenous dosing (at a nominal dose of 2 mg/kg) emplo yed a solution vehicle comprising either 20% EtOH, 20% propylene gl ycol, and 30% PEG -400 in normal saline (for powders 9, 17, and 19) or 0.5% (hydrox yprop yl)meth ylcellulose, 0.4% Tween 80, 0.5% benz yl alcohol, and 20% DMSO i n deionised water (for oil 12). […]
in 0.5% methylcellulose, 0.08% Tween 80 in water ( ex cept fo r oil 12, where the formulation additionally contained 20% DMSO). […]

T. b. brucei 427 [4] = assay: T. b. brucei growth inhibition (University of Antwerp); type: cell-based, Trypanosoma brucei brucei; conditions: T. b. brucei 427, mean of 2 to 5 determinations, read-out: IC50 T. b. bruc
T. b. rhodesiense = T. b. rhodesiense growth inhibition (University of Antwerp); type: cell-based, Trypanosoma brucei rhodesiense; conditions: mean of 2 to 5 determinations, read-out: IC50 T. b. rhod
Trypanosoma cruzi = assay: T. cruzi growth inhibition (University of Antwerp); type: cell-based; conditions: mean of 2 to 5 determinations
Leishmania infantum = assay: L. infantum growth inhibition (University of Antwerp); type: cell-based; conditions: mean of 2 to 5 determinations
[5] = system: human lung fibroblasts (MRC-5 cells); assay: Cytotoxicity toward MRC-5 cells (University of Antwerp); type: cell-based; conditions: Homo sapiens, MRC5, cytotoxicity toward human lung fibroblasts
in vitro = conditions: dog, MDCK-MDR1, Permeability Papp
MDCK-MDR1 cell monolayer = conditions: dog, MDCK-MDR1, 1 h, 3 µM
[6] = brain, from dose normalised AUClast values, read-out: F (oral bioavailability)
[7] = over the three sampling sites (plasma, whole blood, brain), read-out: oral bioavailability
[8] = whole blood, from dose normalised AUClast values, read-out: F (oral bioavailability)
[9] = brain, intravenous, corrected doses 0.5, 1.1, 2.9, 2.0 mg/kg for 9, 12, 17, 19
[10] = brain, oral, corrected doses 62, 50, 78, 49 mg/kg for 9, 12, 17, 19
[11] = plasma, intravenous, corrected doses 0.5, 1.1, 2.9, 2.0 mg/kg for 9, 12, 17, 19
[12] = plasma, oral, corrected doses 62, 50, 78, 49 mg/kg for 9, 12, 17, 19
[13] = whole blood, intravenous, corrected doses 0.5, 1.1, 2.9, 2.0 mg/kg for 9, 12, 17, 19
[14] = whole blood, oral, corrected doses 62, 50, 78, 49 mg/kg for 9, 12, 17, 19
[15] = Trypanosoma brucei, RHODESIENSE
[16] = plasma, from dose normalised AUClast values, read-out: F (oral bioavailability)

SMILES	Selectivity Index (T. b. brucei 427 [1])	IC50 (T. b. brucei 427 [1]) [µg/mL]	IC50 (L929 mouse fibroblasts) [µg/mL]	half-life (Mouse liver S9 stability) [h]	solubility [2] [µg/mL]	bioavailability [3, 6] [%]	bioavailability [3, 8] [%]	AUC(0-t) [3, 9] [ng·h/mL]	clearance [3, 9] [mL/min/kg]	Vd [3, 9] [L/kg]	half-life [3, 9] [h]	AUC(0-t) [3, 10] [ng·h/mL]	Cmax [3, 10] [ng/mL]	Tmax [3, 10] [h]	half-life [3, 10] [h]	AUC(0-t) [3, 11] [ng·h/mL]	clearance [3, 11] [mL/min/kg]	Vd [3, 11] [L/kg]	half-life [3, 11] [h]	IC50 [5] [nM]	also measured
O=[N+]([O-])c1cn2c(n1)[S+]([O-])CC(OCc1ccc(OCc3ccccc3)cc1)C2 (centres unmarked) [Compound 9]	>667	0.015 ± 0.005 (≈ 0.0363 µM)	> 10	2.88	5.4 (≈ 13.1 µM)	0.8	0.8	304	25	1.2	1.6	290	60	2	3.2	505	16.2	0.59	0.43	64000	bioavailability ([3]; 0.5 mg/kg, plasma, from dose normalised AUClast values, read-out: F (oral bioavailability)): 1.4%; bioavailability [3, 7]: < 1.5%; AUC(0-t) [3, 12]: 869 ng·h/mL; Cmax [3, 12]: 200 ng/mL; Tmax [3, 12]: 2 h; half-life [3, 12]: 3.7 h; AUC(0-t) [3, 13]: 489 ng·h/mL; clearance [3, 13]: 14.5 mL/min/kg; Vd [3, 13]: 0.33 L/kg; half-life [3, 13]: 0.42 h; AUC(0-t) [3, 14]: 494 ng·h/mL; Cmax [3, 14]: 110 ng/mL; Tmax [3, 14]: 2 h; half-life [3, 14]: 5.3 h; IC50 (T. b. brucei 427 [4]; Trypanosoma brucei): 30 nM; IC50 (T. b. rhodesiense; [15]): 27 nM; IC50 (Trypanosoma cruzi; Trypanosoma cruzi): 120 nM; IC50 (Leishmania infantum; Leishmania infantum): 3400 nM; Papp at 1 h, 3 µM (in vitro): 77.1 ×10⁻⁶ cm/s
O=[N+]([O-])c1cn2c(n1)S(=O)(=O)CC(OCc1ccc(OCc3ccccc3)cc1)C2 (centres unmarked) [Compound 10]	>303	0.033 ± 0.018 (≈ 0.0768 µM)	> 10	–	–	–	–	–	–	–	–	–	–	–	–	–	–	–	–	> 64000	IC50 (T. b. brucei 427 [4]; Trypanosoma brucei): 97 nM; IC50 (T. b. rhodesiense; [15]): 27 nM; IC50 (Trypanosoma cruzi; Trypanosoma cruzi): 350 nM; IC50 (Leishmania infantum; Leishmania infantum): 7300 nM; absolute AQ (MDCK-MDR1 cell monolayer): ≥ 0.3
O=[N+]([O-])c1cn2c(n1)[S+]([O-])CC(OCc1ccc(OC(F)(F)F)cc1)C2 (centres unmarked) [Compound 12]	>63	0.16 ± 0.07 (≈ 0.409 µM)	> 10	> 5.83	39 (≈ 99.7 µM)	55	52	2850	6.67	1.3	2.3	71200	14000	4	6.9	2090	8.67	1.6	2.5	60000	bioavailability [3, 7]: 52 to 55%; bioavailability [3, 16]: 55%; AUC(0-t) [3, 12]: 51900 ng·h/mL; Cmax [3, 12]: 9300 ng/mL; Tmax [3, 12]: 4 h; half-life [3, 12]: 6.9 h; AUC(0-t) [3, 13]: 2700 ng·h/mL; clearance [3, 13]: 6.5 mL/min/kg; Vd [3, 13]: 1.7 L/kg; half-life [3, 13]: 9.3 h; AUC(0-t) [3, 14]: 63500 ng·h/mL; Cmax [3, 14]: 8600 ng/mL; Tmax [3, 14]: 4 h; half-life [3, 14]: 5.8 h; IC50 (T. b. brucei 427 [4]): 270 nM; IC50 (T. b. rhodesiense): 250 nM; IC50 (Trypanosoma cruzi): 1500 nM; IC50 (Leishmania infantum): 16000 nM; Papp at 1 h, 3 µM (in vitro): 79.8 ×10⁻⁶ cm/s
O=[N+]([O-])c1cn2c(n1)OC[C@@H](OCC#Cc1ccc(-c3ccc(C(F)(F)F)cc3)cn1)C2 [Compound 16]	>19	0.53 ± 0.23 (≈ 1.19 µM)	> 10	–	–	–	–	–	–	–	–	–	–	–	–	–	–	–	–	–	absolute AQ (MDCK-MDR1 cell monolayer): ≥ 0.3
O=[N+]([O-])c1cn2c(n1)OCC(COc1ccc(-c3ccc(OC(F)(F)F)cc3)nc1)C2 (centres unmarked) [Compound 18]	>12	0.83 ± 0.41 (≈ 1.9 µM)	> 10	–	–	–	–	–	–	–	–	–	–	–	–	–	–	–	–	–	absolute AQ (MDCK-MDR1 cell monolayer): ≥ 0.3
O=[N+]([O-])c1cn2c(n1)S(=O)(=O)CC(OCc1ccc(OC(F)(F)F)cc1)C2 (centres unmarked) [Compound 19]	>11	0.9 ± 0.4 (≈ 2.21 µM)	> 10	4.97	10 (≈ 24.6 µM)	43	37	1770	8.5	9.1	14	18800	2400	4	3	1800	16.7	3.6	2.5	> 64000	weaker potency vs 12 (fold) (T. b. brucei 427 [1]; T. b. brucei): 5.6 fold; bioavailability [3, 16]: 42%; AUC(0-t) [3, 12]: 18700 ng·h/mL; Cmax [3, 12]: 2300 ng/mL; Tmax [3, 12]: 2 h; half-life [3, 12]: 2.7 h; AUC(0-t) [3, 13]: 2600 ng·h/mL; clearance [3, 13]: 11.5 mL/min/kg; Vd [3, 13]: 2.8 L/kg; half-life [3, 13]: 5.9 h; AUC(0-t) [3, 14]: 23700 ng·h/mL; Cmax [3, 14]: 3000 ng/mL; Tmax [3, 14]: 2 h; half-life [3, 14]: 3.3 h; IC50 (T. b. brucei 427 [4]; Trypanosoma brucei): 1100 nM; IC50 (T. b. rhodesiense; [15]): 940 nM; IC50 (Trypanosoma cruzi; Trypanosoma cruzi): 1600 nM; IC50 (Leishmania infantum; Leishmania infantum): > 64000 nM; Papp at 1 h, 3 µM (in vitro): 62.4 ×10⁻⁶ cm/s

Reference: PMC5840523, “Assessment of a pretomanid analogue library for African trypanosomiasis: Hit-to-lead studies on 6-substituted 2-nitro-6,7-dihydro-5H-imidazo[2,1-b][1,3]thiazine 8-oxides” (Bioorganic & Medicinal Chemistry Letters, 2018)
